# Key:
# [1] = biological target: T1, SMYD2 (Homo sapiens, UniProt Q9NRG4); assay: In Cell Western (ICW) cell-based assay for detection of SMYD2 methylation activity; set-up: expressed in transfected cells; host or cells: KYSE-150 (human esophageal carcinoma, DSMZ ACC 375); details: SMYD2 overexpressing KYSE-150 cells, 72 h treatment, p53K370me1 signal normalized to DRAQ5; read-out: IC50 [mol/l] (ICW assay)
# Description: 1.2 Cell-Based Assay for Detection of SMYD2 methylation Activity
# For the detection of SMYD2 cellular methylation activity an In Cell Western (ICW) assay was established. This assay allows rapid processing of multiple samples for SMYD2 methylation derived immunofluorescence signals, with normalization to cell number via the use of the nucleic acid dye DRAQS. KYSE-150 cells (human esophageal carcinoma cell line; DSMZ-German Collection of Microorganisms and Cell Cultures; No: ACC 375) have been stably transfected with a construct expressing wild-type SMYD2 (NCBI Reference Sequence: NP_064582.2). To detect SMYD2-mediated methylation signals in cells, a customized antibody directed against mono-methylated lysine 370 on protein p53 (p53K370me1) was used. The polyclonal antibody was generated (Eurogentec) against a p53 peptide containing the mono-methylated K370 epitope as described elsewhere (Huang et al., Nature, 2006, 444(7119):629-32).
# For conducting the ICW assay 5000 SMYD2 overexpressing KYSE-150 cells/well were seeded in 96-well plates (SIGMA) and cultivated for 24 h. As a control for maximal inhibition of ectopic methylation activity, non-transfected KYSE-150 cells were used. Cells were grown in 49% RPMI 1640 with 49% Ham's F12 media supplemented with 2% heat inactivated fetal calf serum (FCS). For determination of SMYD2 inhibitory activity, cells were treated for 72 h in the presence of compounds or with DMSO. Cells were treated with compounds to be tested at a final concentration range varying from 3.9×10^−8 to 5×10^−6 M. Media was removed and 3.7% (w/v) formaldehyde in PBS was added for 20 min. After two washes with phosphate buffered saline (PBS), 0.25% (v/v) Triton X100 in PBS was added for 15 minutes of permeabilization. After one washing step with PBS, cells were blocked for 1 h with 5% (w/v) non-fat dry milk in PBS. Fixed cells were exposed to primary […] antibody in 5% non-fat dry milk in PBS for 24 h. One row of cells on each plate was not exposed to p53K370me1 antibody and was reserved for background control measurements. The wells were washed three times with PBS, then secondary IR800 conjugated antibody (LI-COR) and DNA-intercalating dye, 5 μM DRAQ5 (LI-COR) were added for 3 h. After 5 washes with PBS, the fluorescence in each well was measured on an Odyssey (LI-COR) scanner at 800 nm (p53K370me1 signal; 764 nm excitation) and 700 nm (DRAQS signal; 683 nm excitation). Fluorescence intensity was quantified and normalized to background and DRAQ5 signals. IC50 values were calculated by fitting the normalized inhibition data to a 4-parameter logistic equation (Minimum, Maximum, IC50, Hill; Y=Max+(Min−Max)/(1+(X/IC50)Hill)) for each tested compound. For IC50 determination C0 (=no inhibition) was defined as the signal measured for DMSO treated controls. Ci (maximal inhibition) was defined as the signal measured for non SMYD2 overexpressing KYSE150 cells.
# [2] = biological target: T1, SMYD2; assay: Scintillation Proximity Assay (SPA) for detection of SMYD2 enzymatic inhibition; assay type: biochemical; set-up: The SMYD2 full length enzyme was produced in-house by expression (with an N-terminal 6× His tag) in E. coli; 6xHis (N); made in house; host or cells: E. coli; details: SMYD2 full length enzyme, p53 Peptide substrate 1.0 μM, 3H-SAM 60 nM; read-out: IC50 [mol/l] (SPA Assay)
# Procedure, shortened: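 Full-length N-His SMYD2 from E. coli (typically 3 nM) was preincubated with compounds (0.1 nM–20 μM) for 15 min, then reacted 30 min at 22° C with 60 nM 3H-SAM and 1.0 μM biotinylated p53 peptide in Tris pH 9.0. Streptavidin SPA beads read methylation, and IC50 came from a 4-parameter fit.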
# T1 sequence (Q9NRG4 whole entry): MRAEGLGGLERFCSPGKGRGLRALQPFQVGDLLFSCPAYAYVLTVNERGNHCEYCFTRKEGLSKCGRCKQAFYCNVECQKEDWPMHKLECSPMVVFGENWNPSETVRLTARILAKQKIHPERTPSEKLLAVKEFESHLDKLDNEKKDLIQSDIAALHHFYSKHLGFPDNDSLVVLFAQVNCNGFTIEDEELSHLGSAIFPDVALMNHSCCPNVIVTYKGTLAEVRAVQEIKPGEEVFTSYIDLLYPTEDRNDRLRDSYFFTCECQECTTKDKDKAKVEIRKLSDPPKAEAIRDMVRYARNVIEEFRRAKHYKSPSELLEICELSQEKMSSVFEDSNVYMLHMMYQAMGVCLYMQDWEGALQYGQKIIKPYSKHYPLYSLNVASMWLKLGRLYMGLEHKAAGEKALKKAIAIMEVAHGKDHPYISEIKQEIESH
IC50 [1],IC50 [2],SMILES
0.313 µM,0.0168 µM,"CN(C(=O)[C@H]1C[C@@H](O)CN1)C1CN(/C(=N\C#N)Nc2cccc(OC(F)F)c2)N=C1c1ccc(Cl)c(Cl)c1 (mixture of isomers) [Example 12, (4R)-N-[1-{N′-Cyano-N-[3-(difluoromethoxy)phenyl]carbamimidayl}-3-(3,4-dichlorophenyl)-4,5-dihydro-1H-pyrazol-1-yl]-4-hydroxy-N-methyl-D-prolinamide]"
0.161 µM,0.0247 µM,"CCN(C(=O)[C@H]1CCCN1)C1CN(/C(=N\C#N)Nc2cccc(OC(F)F)c2)N=C1c1ccc(Cl)c(Cl)c1 (mixture of isomers) [Example 1, N-[1-{N′-Cyano-N-[3-(difluoromethoxy)phenyl]carbamimidoyl}-3-(3,4-dichlorophenyl)-4,5-dihydro-1H-pyrazol-4-yl]-N-ethyl-D-prolinamide]"

# Source: US20180099937A1, “NOVEL ARYL-CYANOGUANIDINE COMPOUNDS” (Bayer Pharma Aktiengesellschaft, priority 2015, published 2018)
